What was measured:
[1] = Radiochemical purity on storage at room temperature (analytical reverse phase-HPLC); type: physicochemical; settings: stored at room temperature, for 5 hours after end of synthesis (FIG. 3)
Protocol: The radiochemical purity of the [^18F]FSPG composition was tested at the end of synthesis and up to 5 hours after being stored at room temperature. Analytical reverse phase-HPLC was performed on an Agilent 1260 HPLC system equipped with a 1200 Series Diode Array Detector and a Raytest GABI Star NaI (TL) scintillation detector. The following process parameters were used: • Column: Phenomenex Luna C-18 (2) 250 mm×4.6 mm (5 μm) • Mobile Phase A: 40 μM aqueous disodium phosphate • Mobile Phase B: Acetonitrile/Methanol/Water (45:45:10) (% w/v) • Flow rate: 1.5 ml/min • Gradient: • Initial: 100% Mobile Phase A, 0% Mobile Phase B • 2 min: 96% Mobile Phase A, 4% Mobile Phase B • 5 min: 88% Mobile Phase A, 12% Mobile Phase B • 15 min: 88% Mobile Phase A, 12% Mobile Phase B • 20 min: 40% Mobile Phase A, 60% Mobile Phase B • 22 min: 0% Mobile Phase A, 100% Mobile Phase B • 24 min: 0% Mobile Phase A, 100% Mobile Phase B • 25 min: 100% Mobile Phase A, 0% Mobile Phase B • 30 min: 100% Mobile Phase A, 0% Mobile Phase B • Total Run Time: 35 minutes • UV detector: 340 nm • [^18F]FSPG solution (80 μl) was mixed with o-phthaldialdehyde reagent solution (20 μl). The mixture sat for 1 min prior to the HPLC analysis.

[2] = target: T1, cystine/glutamate antiporter (Xc^−) (Homo sapiens, UniProt Q9UPY5); settings: PET; healthy volunteers and patients with non-small cell lung cancer, hepatocellular carcinoma, brain tumors; cited from earlier work
T1 construct: from tissue; host or cells: Human tissues and tumours in vivo (healthy volunteers; patients with NSCLC, hepatocellular carcinoma or brain tumours)
T1 sequence (Q9UPY5 1-501): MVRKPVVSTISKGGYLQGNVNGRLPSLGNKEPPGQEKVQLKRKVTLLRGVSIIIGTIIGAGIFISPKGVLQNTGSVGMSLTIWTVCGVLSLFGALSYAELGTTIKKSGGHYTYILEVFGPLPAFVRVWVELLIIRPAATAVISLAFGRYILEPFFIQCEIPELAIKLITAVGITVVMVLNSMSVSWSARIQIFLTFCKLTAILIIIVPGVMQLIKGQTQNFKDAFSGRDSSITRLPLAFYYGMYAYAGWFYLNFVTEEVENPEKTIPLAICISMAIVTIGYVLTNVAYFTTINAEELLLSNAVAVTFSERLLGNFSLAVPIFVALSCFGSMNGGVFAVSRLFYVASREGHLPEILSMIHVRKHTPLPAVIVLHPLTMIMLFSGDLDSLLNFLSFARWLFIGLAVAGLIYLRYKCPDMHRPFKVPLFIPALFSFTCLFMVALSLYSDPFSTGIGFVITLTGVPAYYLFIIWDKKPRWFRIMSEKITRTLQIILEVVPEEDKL
T1 sequence (P08195 1-529 partner): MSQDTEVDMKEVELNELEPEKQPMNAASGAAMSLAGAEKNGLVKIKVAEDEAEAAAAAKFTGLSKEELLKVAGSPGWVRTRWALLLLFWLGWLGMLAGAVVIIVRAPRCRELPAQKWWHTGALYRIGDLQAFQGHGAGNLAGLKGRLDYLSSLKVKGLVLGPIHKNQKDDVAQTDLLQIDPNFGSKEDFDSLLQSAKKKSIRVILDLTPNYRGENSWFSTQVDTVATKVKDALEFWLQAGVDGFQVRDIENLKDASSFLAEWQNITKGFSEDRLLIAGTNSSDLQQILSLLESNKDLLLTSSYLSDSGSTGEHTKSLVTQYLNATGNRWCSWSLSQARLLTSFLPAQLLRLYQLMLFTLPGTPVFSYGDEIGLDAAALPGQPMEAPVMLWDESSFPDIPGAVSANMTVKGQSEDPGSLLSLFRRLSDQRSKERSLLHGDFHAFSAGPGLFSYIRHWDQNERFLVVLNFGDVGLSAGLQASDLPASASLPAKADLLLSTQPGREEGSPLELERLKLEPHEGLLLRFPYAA

## N[C@@H](C[C@H](CCC[18F])C(=O)O)C(=O)O [[^18F]FSPG, (S)-4-(3-^18F-fluoropropyl)-L-glutamic acid]
[1]
  radiochemical purity maintained: > 95%
[2]
  background uptake: low background uptake in the brain, lung, and bowel

Reference: patent publication US20260184667A1, “CGMP-COMPLIANT AUTOMATED [18F]FSPG PRODUCTION FOR CLINICAL EXAMINATION” (BOARD OF REGENTS, THE UNIVERSITY OF TEXAS SYSTEM, priority 2022, published 2026)
